Laboratory results taken from publication PMC5447021, “TNF Lectin-Like Domain Restores Epithelial Sodium Channel Function in Frameshift Mutants Associated with Pseudohypoaldosteronism Type 1B” (Frontiers in Immunology, 2017).

Legend:
αL576XβD546XγD556X = experiment: Amiloride-sensitive current, αL576XβD546XγD556X; assay type: cell-based, human; settings: lacking all carboxyl termini, preliminary experiments
A549 cells = settings: cited from earlier work
α-hENaC = molecular target: T1, α-hENaC (Homo sapiens, UniProt P37088); set-up: method as in PMID 24077967; settings: α-hENaC alone, control current 55.3 ± 5.5 pA, mean ± S.E.; cited from earlier work
T1 construct: expressed in transfected cells; host or cells: HEK-293
T1 sequence (P37088 1-669): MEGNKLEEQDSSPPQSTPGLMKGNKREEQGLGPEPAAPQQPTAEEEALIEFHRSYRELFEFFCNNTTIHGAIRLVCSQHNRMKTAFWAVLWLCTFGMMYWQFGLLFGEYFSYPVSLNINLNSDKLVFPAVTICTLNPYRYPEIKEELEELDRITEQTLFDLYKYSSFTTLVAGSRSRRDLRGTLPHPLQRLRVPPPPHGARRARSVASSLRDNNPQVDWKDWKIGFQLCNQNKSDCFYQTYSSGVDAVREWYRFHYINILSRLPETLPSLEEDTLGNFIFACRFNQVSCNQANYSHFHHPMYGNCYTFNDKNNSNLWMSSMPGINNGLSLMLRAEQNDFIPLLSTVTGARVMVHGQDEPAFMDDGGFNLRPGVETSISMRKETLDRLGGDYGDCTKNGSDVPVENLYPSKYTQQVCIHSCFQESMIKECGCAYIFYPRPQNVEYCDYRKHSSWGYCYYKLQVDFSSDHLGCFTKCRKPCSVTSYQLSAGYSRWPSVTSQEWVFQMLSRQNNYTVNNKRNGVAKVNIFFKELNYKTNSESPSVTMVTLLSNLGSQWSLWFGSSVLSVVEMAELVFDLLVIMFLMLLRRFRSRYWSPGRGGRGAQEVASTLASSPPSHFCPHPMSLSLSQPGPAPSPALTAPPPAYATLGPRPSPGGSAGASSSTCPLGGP

αS452fs = experiment: Membrane abundance of αS452fs; assay type: cell-based, human; settings: 200 nM, relative to WT control (=1), own control 1.11 ± 0.25, p < 0.001 vs control
Procedure: Cell surface biotinylation was performed as previously described ([26]). In brief, A549 cells or transiently transfected HEK-293 cells were grown in 10 cm dishes in 37°C, 5% CO2 incubator in DMEM medium supplemented with 5% FBS. […] Medium was aspirated, and then cells were washed twice with 10 ml ice-cold phosphate-buffered saline (PBS), covered with 2.5 mg EZ-Link Sulfo-NHS-SS-Biotin (Thermo Scientific, Rockford, USA), dissolved in 10 ml ice-cold PBS, and incubated at 4°C with gentle agitation for 30 min. Fifty milliliters of quenching solution were added to cells; then cells were scraped in solution and transferred to fresh 50 ml tube. Cell suspension was centrifuged at 500 × g for 3 min. Supernatant was discarded, and 5 ml of Tris-buffered saline (TBS) was added to the cell pellet. The cell pellet was resuspended and centrifuged at 500 × g for 3 min. Supernatant was discarded and cell pellet was resuspended in lysis buffer containing protease inhibitor cocktail (10 µM pepstatin A, 10 µM phenylmethylsulfonyl fluoride, and 10 µM leupeptin) and transferred to fresh 1.5 ml centrifuge tube. Cell pellet was then homogenized on ice by ultrasonication using 1 s bursts and incubated on ice for at least 30 min. Intact cells and nuclei were pelleted by centrifugation at 10,000 × g for 2 min under cooling conditions. […] Exposed films were scanned and quantified using ImageJ (NIH, MD, USA). […]

Compound: C[C@@H]1NC(=O)CNC(=O)[C@H](CCC(=O)O)NC(=O)[C@@H]2CCCN2C(=O)[C@H]([C@@H](C)O)NC(=O)[C@H](CCC(=O)O)NC(=O)[C@H](CCCNC(=N)N)NC(=O)[C@H](CCC(N)=O)NC(=O)CNC(=O)[C@@H](N)CSSC[C@@H](C(=O)O)NC(=O)[C@H](Cc2ccc(O)cc2)NC(=O)[C@H](Cc2c[nH]c3ccccc23)NC(=O)[C@@H]2CCCN2C(=O)[C@H](CCCCN)NC(=O)[C@H](C)NC(=O)[C@H](CCC(=O)O)NC1=O [solnatide, L-cysteine, L-cysteinylglycyl-L-glutaminyl-L-arginyl-L-α-glutamyl-L-threonyl-L-prolyl-L-α-glutamylglycyl-L-alanyl-L-α-glutamyl-L-alanyl-L-lysyl-L-prolyl-L-tryptophyl-L-tyrosyl-, cyclic (1→17)-disulfide]
- Effect of solnatide on current (words) (αL576XβD546XγD556X): an even slighter, non-significant increase of current
- Increase in single channel parameters after PNGase F (A549 cells; A549 cells, PNGase F pretreated): completely abolished in PNGase F pretreated cells
- Single channel open probability, mean open time, number and duration of bursts (A549 cells; A549 cells): significantly increased
- Effect on current, A549 cells (A549 cells; endogenous α-, β-, γ-, δ-subunits): current activating effect
- Maximal induced current, solnatide (α-hENaC): 11.3 ± 6.2 pA
- Membrane abundance, solnatide 5 min (αS452fs; 5 min): 1.36 ± 0.11
- Membrane abundance, solnatide 10 min (αS452fs; 10 min): 1.94 ± 0.08
